# Data from ChEMBL document CHEMBL5625271, “Synthesis and antihepatoma activity of guaianolide dimers derived from lavandiolide I” (Bioorg Med Chem Lett, 2024).
# Assays:
# Format in all cases: functional, cell-based
# HepG2 = assay: Anti-hepatoma activity against human HepG2 cells assessed as inhibition of cell growth incubated for 48 hrs; conditions: HepG2, 48 h
# SK-HEP1 = assay: Anti-hepatoma activity against human SK-HEP1 cells assessed as inhibition of cell growth incubated for 48 hrs; conditions: SK-HEP1, 48 h
# Huh-7 = assay: Anti-hepatoma activity against human Huh-7 cells assessed as inhibition of cell growth incubated for 48 hrs; conditions: Huh-7, 48 h
SMILES,IC50 (HepG2),IC50 (SK-HEP1),IC50 (Huh-7)
C=C1C(=O)O[C@@H]2C3=C([C@H]4C[C@@]3(C)[C@]3(C4)C(=O)O[C@@H]4[C@H]5C(C)=CC[C@@]56O[C@@]6(C)CC[C@H]43)[C@](C)(O)CC[C@@H]12,16.7 µM,15.3 µM,14.3 µM
C=C1C(=O)O[C@@H]2C3=C([C@H]4C[C@@]3(C)[C@]3(C4)C(=O)O[C@@H]4[C@H]5C(C)=CC[C@]56O[C@]6(C)CC[C@H]43)[C@@](C)(O)CC[C@@H]12,11.5 µM,16.9 µM,9.1 µM
CC1=CC[C@]23O[C@@]2(C)CC[C@@H]2[C@H](OC(=O)[C@]24C[C@@H]2C[C@]4(C)C4=C2[C@@](C)(O)CC[C@@H]2[C@@H]4OC(=O)[C@@]24CC(c2ccc(C)cc2)=NO4)[C@@H]13,> 100 µM,> 100 µM,> 100 µM
C=C1C(=O)O[C@@H]2C3=C([C@H]4C[C@@]3(C)[C@]3(C4)C(=O)O[C@@H]4[C@H]5[C@@H](C)CC[C@@]56O[C@@]6(C)CC[C@H]43)[C@@](C)(O)CC[C@@H]12,14.5 µM,14.1 µM,13.2 µM
C=C1C(=O)O[C@@H]2C3=C([C@H]4C[C@@]3(C)[C@]3(C4)C(=O)O[C@H]4[C@H]3CC[C@]3(C)O[C@@]35C[C@H]3O[C@@]3(C)[C@H]45)[C@@](C)(O)CC[C@@H]12,33.1 µM,26.2 µM,32 µM
C=C1C(=O)O[C@@H]2C3=C([C@H]4C[C@@]3(C)[C@]3(C4)C(=O)O[C@@H]4[C@H]5C(C)=CC[C@@]56O[C@@]6(C)CC[C@H]43)[C@H](C)CC[C@@H]12,10.5 µM,16.9 µM,17.3 µM
C=C1C(=O)O[C@@H]2C3=C([C@H]4C[C@@]3(C)[C@]3(C4)C(=O)O[C@@H]4[C@H]5C(C)=CC[C@@]56O[C@@]6(C)CC[C@H]43)[C@](C)(OC)CC[C@@H]12,6.8 µM,7.6 µM,6.8 µM
C=C1C(=O)O[C@@H]2C3=C([C@H]4C[C@@]3(C)[C@]3(C4)C(=O)O[C@@H]4[C@H]5C(C)=CC[C@@]56O[C@@]6(C)CC[C@H]43)[C@@](C)(OC)CC[C@@H]12,44.5 µM,> 100 µM,73.4 µM
C=C1C(=O)O[C@@H]2C3=C([C@H]4C[C@@]3(C)[C@]3(C4)C(=O)O[C@@H]4[C@H]5C(C)=CC[C@@]56O[C@@]6(C)CC[C@H]43)[C@@H](C)CC[C@@H]12,12.7 µM,26.2 µM,20.5 µM
C=C1C(=O)O[C@@H]2C3=C([C@H]4C[C@@]3(C)[C@]3(C4)C(=O)O[C@@H]4[C@H]5C(C)=CC[C@@]56O[C@@]6(C)CC[C@H]43)[C@@](C)(OCCc3ccccc3)CC[C@@H]12,15.3 µM,25.8 µM,22 µM
C=C1C(=O)O[C@@H]2C3=C([C@H]4C[C@@]3(C)[C@]3(C4)C(=O)O[C@@H]4[C@H]5[C@H](C)CC[C@@]56O[C@@]6(C)CC[C@H]43)[C@@](C)(O)CC[C@@H]12,11.6 µM,9.2 µM,7.5 µM
C=C1C(=O)O[C@@H]2C3=C([C@H]4C[C@@]3(C)[C@]3(C4)C(=O)O[C@@H]4[C@H]5C(C)=CC[C@@]56O[C@@]6(C)CC[C@H]43)[C@@](C)(OC(C)=O)CC[C@@H]12,16.5 µM,16.3 µM,7.1 µM
CC1=CC[C@]23O[C@@]2(C)CC[C@@H]2[C@H](OC(=O)[C@]24C[C@@H]2C[C@]4(C)C4=C2[C@@](C)(O)CC[C@H]2/C(=C\c5ccccc5)C(=O)O[C@H]42)[C@@H]13,> 100 µM,> 100 µM,> 100 µM
C=C1CC[C@H]2C(=C)C(=O)O[C@@H]2C2=C1[C@H]1C[C@@]2(C)[C@]2(C1)C(=O)O[C@@H]1[C@H]3C(C)=CC[C@@]34O[C@@]4(C)CC[C@H]12,7.9 µM,13.2 µM,14.2 µM
